Experimental findings from patent US6506769B2, “Heterocyclic compounds useful as inhibitors of tyrosine kinases” (Boehringer Ingelheim Pharmaceuticals, Inc., priority 1999, dated 2003) are described below.

Structures are written as SMILES.

The melting point is the temperature, or range, at which the solid turns liquid. Regarding `C=CC(O)c1[nH]c(=O)c2c(ccc3nc(Nc4c(Cl)cccc4Cl)n(C)c32)c1C` (stereo not shown) [Example 16, 2-(2,6-Dichlorophenylamino)-1,6-dimethyl-7-(1-hydroxyprop-2-en-1-yl)-1,8-dihydro-imidazo[4,5-h]isoquinolin-9-one], the melting point lay in the range of 235 to 236 °C.

For the compound `Cc1[nH]c(=O)c2c(ccc3nc(Nc4c(Cl)cccc4Cl)n(C)c32)c1CCN1CCOCC1` [Example 8, 2-(2,6-Dichlorophenylamino)-1,7-dimethyl-6-(2-morpholin-4-yl-ethyl)-1,8-dihydro-imidazo[4,5-h]isoquinoline-9-one], the melting point was in the range of 285 to 290 °C.

For `O=c1[nH]c2ccccc2c2ccc3nc(Nc4c(Cl)cccc4Cl)[nH]c3c12` [Example 26, 2-(2,6-Dichlorophenylamino)-3,5-dihydro-imidazo[4,5-i]phenanthridin-4-one], the melting point is above 300 °C.

The compound `Cc1c(/C=C/CN2CCOCC2)[nH]c(=O)c2c1ccc1nc(Nc3c(Cl)cccc3Cl)n(C)c12` [Example 18, 2-(2,6-Dichlorophenylamino)-1,6-dimethyl-7-(3-morpholin-4-yl-propen-1-yl)-1,8-dihydro-imidazo[4,5-h]-isoquinolin-9-one] had a melting point of 175 to 177 °C.

Compound `Cc1c(CNCc2ccccc2)[nH]c(=O)c2c1ccc1nc(Nc3c(Cl)cccc3Cl)n(C)c12` [Example 19, 7-Benzylaminomethyl-2-(2,6-dichlorophenylamino)-1,6-dimethyl-1,8-dihydro-imidazo[4,5-h]-isoquinolin-9-one] registered a melting point of 231 to 234 °C.

For the compound `Cn1c(Nc2c(Cl)cccc2Cl)nc2ccc3c4c([nH]c(=O)c3c21)CCC4` [Example 27, 2-(2,6-Dichlorophenylamino)-3-methyl-5,6,7,8-tetrahydro-3H-1,3,5-triaza-dicyclopenta[a,f]naphthalen-4-one], the melting point was > 300 °C (dec.).

Turning to `CC1(C)CNC(=O)c2c1ccc1nc(Nc3c(Cl)cccc3Cl)[nH]c21` [Example 2, 2-(2,6-Dichlorophenylamino)-6,6-dimethyl-7,8-dihydro-1H,6H-imidazo[4,5-h]isoquinoline-9-one], the melting point was 287 to 290 °C.

In turn, `Cc1[nH]c(=O)c2c(ccc3nc(Nc4c(Cl)cccc4Cl)[nH]c32)c1C` [Example 3a, 2-(2,6-Dichlorophenylamino)-6,7-dimethyl-1,8-dihydro-imidazo[4,5-h]isoquinoline-9-one] returned a melting point above 300 °C.

The compound `Cc1c(/C=C/CN)[nH]c(=O)c2c1ccc1nc(Nc3c(Cl)cccc3Cl)n(C)c12` [Example 28, 7-(3-Aminopropen-1-yl)-2-(2,6dichlorophenylamino)-1,6-dimethyl-1,8-dihydro-imidazo[4,5-h]-isoquinolin-9-one] displayed a melting point above 300 °C.

Turning to `Cc1c(/C=C/CO)[nH]c(=O)c2c1ccc1nc(Nc3c(Cl)cccc3Cl)n(C)c12` [Example 14, 2-(2,6-Dichlorophenylamino)-1,6-dimethyl-7-(3-hydroxy-propen-1-yl)-1,8-dihydro-imidazo[4,5-h]isoquinolin-9-one], the melting point lay in the range of 298 to 300 °C.

`Cc1c(-c2cncn2C)[nH]c(=O)c2c1ccc1nc(Nc3c(Cl)cccc3Cl)n(C)c12` [Example 21, 2-(2,6-Dichlorophenylamino)-1,6-dimethyl-7-(3-methyl-3H-imidazol-4-yl)-1,8-dihydro-imidazo[4,5-h]isoquinolin-9-one] registered a melting point above 300 °C.

For the compound `CCOC(=O)Cc1c(C)[nH]c(=O)c2c1ccc1nc(Nc3c(Cl)cccc3Cl)n(C)c12` [Example 9, 2-(2,6-Dichlorophenylamino)-1,7-dimethyl-9-oxo-1,8-dihydro-imidazo[4,5-h]isoquinolin-6-yl acetic acid ethyl ester], the melting point is 280 to 285 °C (dec.).

Consider `Cc1c(-c2cnco2)[nH]c(=O)c2c1ccc1nc(Nc3c(Cl)cccc3Cl)n(C)c12` [Example 20, 2-(2,6-Dichlorophenylamino)-1,6-dimethyl-7-oxazol-5-yl-1,8-dihydro-imidazo[4,5-h]isoquinolin-9-one], for which the melting point was above 300 °C.

As to `Cc1[nH]c(=O)c2c(ccc3nc(Nc4c(Cl)cccc4Cl)n(C)c32)c1CC(=O)N1CCOCC1` [Example 7, 2-(2,6-Dichlorophenylamino)-1,7-dimethyl-6-(2-morpholin-4-yl-2-oxoethyl)-1,8-dihydro-imidazo[4,5-h]isoquinoline-9-one], the melting point was above 300 °C.

`COC(=O)/C=C/c1[nH]c(=O)c2c(ccc3nc(Nc4c(Cl)cccc4Cl)n(C)c32)c1C` [Example 12, 3-[2-(2,6-Dichlorophenylamino)-1,6-dimethyl-9-oxo-8,9-dihydro-1H-imidazo[4,5-h]isoquinolin-7-yl]-acrylic acid methyl ester] displayed a melting point above 300 °C.

`C=Cc1[nH]c(=O)c2c(ccc3nc(Nc4c(Cl)cccc4Cl)n(C)c32)c1C` [Example 15, 2-(2,6-Dichlorophenylamino)-1,6-dimethyl-7-vinyl-1,8-dihydro-imidazo[4,5-h]isoquinoline-9-one] gave a melting point above 300 °C.

`CC1(C)C(=O)NC(=O)c2c1ccc1nc(Nc3c(Cl)cccc3Cl)sc21` [Example 5, 2-(2,6-Dichlorophenylamino)-6,6-dimethyl-6H-thiazolo[4,5-h]isoquinoline-7,9-dione] came in with a melting point above 300 °C.

As for `CC1(C)C(=O)NC(=O)c2c1ccc1nc(Nc3c(Cl)cccc3Cl)[nH]c21` [Example 1, 2-(2,6-Dichlorophenylamino)-6,6-dimethyl-1H,6H-imidazo[4,5-h]isoquinoline-7,9-dione], the melting point was in the range of 290 to 292 °C.

Regarding `Cc1[nH]c(=O)c2c(ccc3nc(Nc4c(Cl)cccc4Cl)n(C)c32)c1CCO` [Example 10, 2-(2,6-Dichlorophenylamino)-1,7-dimethyl-6-(2-hydroxyethyl)-1,8-dihydro-imidazo[4,5-h]isoquinoline-9-one], the melting point was above 300 °C.
